Source: publication PMC12138593, “Synthesis, Crystal Design and Anticancer Potential of Novel Cu(II), Ni(II), and Pd(II) Complexes with Carbazate Ligand” (ACS Omega, 2025)

Key:
MCF-7 = test: MTT cytotoxicity assay, MCF-7 breast cancer cells; type: cell-based, human; details: IC50 ± SD
Procedure: (§1) Human cell lines A549 (lung cancer, ATCC No. CCL-185), MRC-5 (nontumoral lung, ATCC No. CCL-171), MCF-7 (breast cancer, ATCC No. HTB-22), and A2780cis (cisplatin-resistant ovarian cancer, ECACC No. 93112517) were used to evaluate the cytotoxic activity of the metal complexes. The A549 and MRC-5 cell lines were cultured in DMEM (Dulbecco’s Modified Eagle’s Medium), while the MCF-7 and A2780cis cell lines were maintained in RPMI-1640 (Roswell Park Memorial Institute) medium. Both media were supplemented with 10% fetal bovine serum (FBS), penicillin (100 U/mL), streptomycin ([…]), and L-glutamine (2 mM). The cells were grown in monolayers using disposable 25 cm^2 flasks and incubated at 37 °C in a 5% CO2 atmosphere.
(§2) The cytotoxicity of the compounds was determined using the MTT colorimetric assay (3-(4,5-dimethylthiazol-2-yl)-2,5-diphenyl tetrazolium bromide), as described by Mosmann. The cells were trypsinized for counting and concentration adjustment and then seeded in 96-well plates (1.5 × 10^4 cells/well). The plates were incubated at 37 °C in a 5% CO2 atmosphere for 24 h to allow cell adhesion. […] Absorbance was measured at 570 nm using a Varioskan LUX Multimode Microplate Reader (VL000D0). […]

A549 = test: MTT cytotoxicity assay, A549 lung cancer cells; type: cell-based, human; details: IC50 ± SD
Procedure: as §1, §2

A2780cis = test: MTT cytotoxicity assay, A2780cis cisplatin-resistant ovarian cancer cells; type: cell-based, human; details: 48 h, IC50 ± SD
Procedure: as §1, §2

MRC-5 = test: MTT cytotoxicity assay, MRC-5 noncancerous lung cells; type: cell-based, human; details: IC50 ± SD
Procedure: as §1, §2

[1] = Molar conductance in DMSO over 48 h; type: physicochemical; details: 10^-3 M in DMSO, room temperature
Procedure: DMSO solutions (10^–3 M) of the Hapmc and metal(II) complexes were subjected to molar conductance measurements at room temperature over 48 h, and the observed values are presented in Table S2.
The solvents and reagents were purchased from commercial sources and used without purification. The FT-IR spectra of the compounds were obtained from KBr pellets, using an FT-IR Varian 640 spectrometer in the range of 4000–400 cm^–1. Electrospray ionization mass spectrometry analysis (ESI-MS) was performed on an AB Sciex Triple TOF 5600+ mass spectrometer in positive mode, with a voltage of 5500 V and source temperature of 200 °C. ^1H nuclear magnetic resonance spectra were collected on a Varian Mercury Plus (600 MHz), with TMS as internal reference and DMSO-d 6 as solvent. Elemental analysis of CHN was performed with a PerkinElmer/Series II 2400 analyzer. Electronic spectra were obtained using a UV–vis–NIR Varian Cary 5000 spectrophotometer using 20 μM or 1 mM solutions prepared in methanol or DMF. The molar conductance of a 10^–3 M solution of ligand and metal complexes in DMSO was measured at room temperature using a Quimis Q405 M conduct meter.

Molar conductivity, 0 hours ([1]; 0 hours)	Molar conductivity, 24 hours ([1]; 24 hours)	Molar conductivity, 48 hours ([1]; 48 hours)	SMILES	IC50 (MCF-7; 48 h)	IC50 (A549; 48 h)	IC50 (A2780cis)	IC50 (MRC-5; 48 h)	IC50 (MCF-7; Homo sapiens, MCF7, 48 h)	IC50 (A549; Homo sapiens, A549, 48 h)	IC50 (A2780cis; Homo sapiens, A2780cis)	IC50 (MRC-5; Homo sapiens, MRC5, 48 h)
			N.N.[Cl][Pt][Cl] [Cisplatin, reference compound]	14 µM	11.5 µM	37 µM	29.1 µM				
1.90 Ω -1.cm2.mol-1	2.37 Ω -1.cm2.mol-1	2.48 Ω -1.cm2.mol-1	COC(=O)N/N=C(\C)c1ccccn1 [Hapmc, 2-acetylpyridine-methylcarbazate]					> 100 µM	> 100 µM	> 100 µM	> 100 µM
